Values joined by “and” are separate entries in the source; they are usually repeats but may differ in a detail not shown here. Identical values can stand only once.
Legend:
MpLBD [1] = target: T1, MpLBD (Myzus persicae, UniProt A3EZJ9); experiment: miniaturized automated radioligand-based competition assay, MpLBD; type: binding; details: 1.3 nM [3H]ponasterone A, no CHAPS, read-out: Ki from radioligand-based MpLBD assay
T1 sequence (A3EZJ9 70-308): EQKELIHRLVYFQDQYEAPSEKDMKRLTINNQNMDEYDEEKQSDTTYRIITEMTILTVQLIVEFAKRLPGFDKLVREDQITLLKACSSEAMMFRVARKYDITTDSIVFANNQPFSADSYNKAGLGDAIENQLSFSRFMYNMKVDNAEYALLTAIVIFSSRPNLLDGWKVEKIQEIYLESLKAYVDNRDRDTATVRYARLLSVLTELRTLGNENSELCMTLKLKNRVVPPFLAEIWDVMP
T1 sequence (A3EZK0 32-259 partner): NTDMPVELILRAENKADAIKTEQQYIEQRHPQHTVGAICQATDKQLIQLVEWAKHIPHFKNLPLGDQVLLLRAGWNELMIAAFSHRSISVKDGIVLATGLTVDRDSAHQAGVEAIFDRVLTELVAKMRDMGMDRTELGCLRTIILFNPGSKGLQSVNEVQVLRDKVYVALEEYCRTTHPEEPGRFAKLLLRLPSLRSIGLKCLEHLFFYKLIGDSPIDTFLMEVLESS
Protocol: (§1) Subsequently, a miniaturized and automated version of the radioligand-based competition assay was used with MpLBD and BtLBD to obtain Ki values for the non-radioactive, non-fluorescent ecdysteroids that would later be used to validate the competitive inhibition format of the FP assay. While the concept of the assay was unchanged from that described above, some aspects of its execution were different. […] The mixtures were again allowed to reach equilibrium, but this time for 4 h at room temperature. The MpLBD was then captured on a 96-filter array (Unifilter-96 GF/C, Packard, Cat. No. 6005174) and rinsed using the wash tool and vacuum block of the Biomek 2000. The back of each filter-plate was then manually sealed using a sheet of Packard BackSeal, and 25 μl Packard MicroScint-20 scintillation fluid was dispensed into each well. The top of each plate was sealed with Packard TopSeal-A and the filters were allowed to solvate overnight. […] Since the amount of bound radioactivity was at most 28% of the total present, no additional corrections for ligand depletion were applied.

BtLBD [2] = target: T2, BtLBD (Bemisia tabaci, UniProt A0A142K0N3); experiment: miniaturized automated radioligand-based competition assay, BtLBD; type: binding; details: 1.3 nM [3H]ponasterone A, no CHAPS, read-out: Ki from radioligand-based BtLBD assay
Protocol: as §1

MpLBD [3] = target: T1, MpLBD; experiment: FP competitive inhibition assay with MB4628 tracer, MpLBD; type: binding; details: 5 nM functional MpLBD, 36 nM MB4628, no CHAPS, Cheng-Prusoff; read-out: FP-derived Ki, MpLBD
Protocol: (§2) For competitive inhibition assays, each well contained standard FP assay buffer containing 36 nM MB4628 and either 5 nM functional MpLBD or 6 nM functional BtLBD. The BtLBD assays, but not the MpLBD ones, were routinely done in the presence of 2 mM CHAPS. The final volume of all assays were 250 μl.
(§3) The inhibitor concentration at this midpoint was deemed to be the IC50 value for the inhibitor. IC50 values were converted to Ki values using the Cheng-Prusoff equation (Cheng & Prusoff, 1973), as follows: Ki=IC50/(1+([MB4628]tot/Kd)) where [MB-4628]tot is the total concentration of MB4628 in the assay, and Kd is the dissociation constant for MB4628 with the relevant receptor under the conditions of the assay. The Kd values for use in this equation were calculated from the basic FP titration curves (FIG. 3) using the knowledge that the receptor concentration at the titration midpoint is the value at which the receptor is half-saturated with MB4628. The Kd is the free MB4628 concentration at this point, and must therefore be: Kd=[MB4628]tot−([receptor]midpoint)/2

BtLBD [4] = target: T2, BtLBD; experiment: FP competitive inhibition assay with MB4628 tracer, BtLBD; type: binding; details: 6 nM functional BtLBD, 36 nM MB4628, 2 mM CHAPS, Cheng-Prusoff; read-out: FP-derived Ki, BtLBD
Protocol: as §2, §3

[5] = target: MpLBD, recombinant M. persicae ecdysone receptor (Myzus persicae, UniProt A3EZJ9); experiment: manual radioligand-based competitive inhibition assay ([3H]ponasterone A), MpLBD; type: binding; details: for ability to compete with [3H]ponasterone A / bind to MpLBD (in words): radioligand-based assay
Protocol: The ability of inokosterone and fluorescent conjugates thereof to bind to recombinant M. persicae ecdysone receptor was assessed using the conventional radioligand binding assay in a competetive inhibition format (adapted from Koelle et al., 1991).
These procedures were performed manually, as follows. Assays were performed in EcR40 buffer [25 mM Hepes, 40 mM KCl, 10% glycerol, 1 mM sodium EDTA, 3 mM sodium azide] containing 0.5 mg/ml bovine serum albumin (BSA). An extract containing recombinant M. persicae edcdysone receptor, MpLBD, was prepared as described above and diluted in EcR40 buffer containing 0.5 mg/ml BSA to a concentration that generated filter counts around 10 000 cpm when the assay was done in the absence of competing ligands. […] Assays were set up to contain different final concentrations of fluorescent ecdysteroid by including the appropriate volumes of the relevant stock solutions. […] Each incubation was performed in a final volume of […] at room temperature (22° C.) for 90 min, whereupon it was held on ice until the filter adsorption/wash steps could be performed. Three 140 μl aliquots from each completed incubation were applied to glass microfibre filters (GF/C 24 mm diameter, Whatman, Cat. No. 1822024); i.e., every incubation generated three filters, each of which had been wet using 140 μl of the incubation mixture. After exposure to the liquid for 30 sec at room temperature, the wet filter was transferred to a vacuum sinter apparatus (Pyrex Filter Holder, Millipore Corp., Cat. No. XX1002500) and washed rapidly. Washing was done using 2×5 ml of ice-cold EcR40 buffer, intersperced with 3×0.5 ml buffer applied around the circumference of the filter to ensure that its edges were thoroughly rinsed. The damp filter was then transferred to a scintillation vial. When all the filters had been thus processed, 7 ml Packard InstaGel Plus scintillant was added to each scintillation vial. The sealed vials were vortexed and then incubated at room temperature for at least 2 h, during which time the filters became transparent. The vials were then scintillation counted (1 min per filter, tritium program, Packard TriCarb 2100TR scintillation counter). Datapoints were reported as the mean cpm value ±SEM for the three replicate filters arising from each incubation.
The inhibitor concentration at this midpoint was deemed to be the IC50 value for the inhibitor.

MpLBD [6] = target: T1, MpLBD; experiment: FP titration of MB4628 with MpLBD; type: binding
Protocol: (§4) The standard FP assay buffer was 50 mM sodium phosphate, 100 mM NaCl, pH 7.4, containing 0.5 mg/ml bovine serum albumin. When required, preparative pipetting steps (such as dilution series) were typically done in conventional V-bottomed 96-well microplates (e.g. V-bottomed polypropylene, Greiner Bio-One, Cat. No. 651201). The assays themselves were set up in opaque black flat-bottomed 96-well plates designed for fluorescence measurements (e.g. Nunc, Cat. No. 237108). The final volume of all assays was 250 μl. The FP plate-reader was a POLARstar Optima (Cat. No. 413-201, BMG Labtechnologies, Offenburg, Germany) with fluorescence polarization optics (installed according to the manufacturer's instructions) and operated by FLUOstar Optima software in Plate Mode (Polarization). Excitation was done at 485 nm (filter 485) and emission was detected at 520 nm (filter 520p). The standard instrument setup involved a 3 sec/3 mm shake for the plate prior to commencing reading; readings used 200 flashes/assay. Gain values were typically around 3000 for each channel, with a K-factor close or equal to 1.0.
(§5) A 250 μl sample of 30 nM fluorescein in 50 mM sodium phosphate, 100 mM NaCl, pH 7.4, was known to have a polarization value of 35 mP and was used to calibrate the FP plate-reader.
Receptor LBD titrations involved mixing a small volume (e.g. 2.5 μl) of diluted receptor LBD heterodimer stock with a larger volume (e.g. 247.5 μl) of standard FP assay buffer containing 36 nM MB4628. Where indicated, CHAPS was present at a final concentration of 2 mM. […] The assay mixtures were allowed to reach equilibrium, typically by incubating overnight at 4° C. and then equilibrating at room temperature (20° C.) for 2-4 h before reading the mP values. […]
The inhibitor concentration at this midpoint was deemed to be the IC50 value for the inhibitor. […] The Kd values for use in this equation were calculated from the basic FP titration curves (FIG. 3) using the knowledge that the receptor concentration at the titration midpoint is the value at which the receptor is half-saturated with MB4628. […]

BtLBD [7] = target: T2, BtLBD; experiment: FP titration of MB4628 with BtLBD; type: binding; details: for Kd: 36 nM MB4628
Protocol: as §4, §5
Receptor LBD titrations involved mixing a small volume (e.g. 2.5 μl) of diluted receptor LBD heterodimer stock with a larger volume (e.g. 247.5 μl) of standard FP assay buffer containing 36 nM MB4628. Where indicated, CHAPS was present at a final concentration of 2 mM. Receptor dilutions were typically arranged to cover a wide concentration range, e.g. 0.005-50 nM functional receptor. The assay mixtures were allowed to reach equilibrium, typically by incubating overnight at 4° C. and then equilibrating at room temperature (20° C.) for 2-4 h before reading the mP values. When plotting the data, smooth curves were drawn for the FP titrations using a Flexicurve; these represent a more realistic fit to the data than the linear point-to-point plots shown (for convenience of printing) in FIG. 3.
as §3
The effect of omitting CHAPS from BtLBD competitive inhibition assays was tested directly. Thus, in a BtLBD experiment that departed from standard procedure, 10 nM functional BtLBD was incubated with 36 nM MB4628 and increasing concentrations of non-fluorescent ecdysteroids, but without CHAPS.

LcLBD = experiment: FP titration of MB4628 with LcLBD; type: binding, Lucilia cuprina; details: 36 nM MB4628, no CHAPS
Protocol: as §4, with “Gain values were typically around 3000 for each channel, with a K-factor close or equal to 1.0.” left out
(§6) A 250 μl sample of 30 nM fluorescein in 50 mM sodium phosphate, 100 mM NaCl, pH 7.4, was known to have a polarization value of 35 mP and was used to calibrate the FP plate-reader. […] Thereafter, at the commencement of each experimental session, the FP plate-reader was adjusted to give a reading of 100 mP for a 250 μl sample of 36 nM MB4628 in standard FP assay buffer. […]

HaLBD = experiment: FP titration of MB4628 with HaLBD; type: binding, Helicoverpa armigera; details: 36 nM MB4628, no CHAPS
Protocol: as §4, with “Gain values were typically around 3000 for each channel, with a K-factor close or equal to 1.0.” left out
as §6

| Compound | Ki (MpLBD [1]) | Ki (BtLBD [2]) [µM] | Ki (MpLBD [3]) [µM] | Ki (BtLBD [4]) [µM] | Ki [5] [µM] | ability to compete with [3H]ponasterone A / bind to MpLBD (in words) [5] | also measured |
| --- | --- | --- | --- | --- | --- | --- | --- |
| CC(C)CC[C@@H](O)[C@](C)(O)[C@H]1CC[C@@]2(O)C3=CC(=O)[C@@H]4C[C@@H](O)[C@@H](O)C[C@]4(C)[C@H]3CC[C@]12C [ponasterone A] | 0.00028 µM and ~0.0003 µM | 0.0048 | 0.001 | 0.0074 |  |  |  |
| CC(C)CC[C@@H](O)[C@](C)(O)[C@H]1CC[C@@]2(O)C3=CC(=O)[C@]4(O)C[C@@H](O)[C@@H](O)C[C@]4(C)[C@H]3[C@H](O)C[C@]12C [muristerone A] | 0.03 µM | 0.0053 | 0.149 | 0.027 |  |  |  |
| CC(CCC(O)C(C)(O)C1CCC2(O)C3=CC(=O)C4CC(O)C(O)CC4(C)C3CCC12C)COC(=S)Nc1ccc2c(c1)C(=O)OC21c2ccc(O)cc2Oc2cc(O)ccc21 (stereo not drawn) [MB4628] |  |  |  |  | 0.04 | unimpaired | FP titration curve midpoint, MpLBD (MpLBD [6]; 36 nM MB4628, no CHAPS): 1.1-1.8 nM functional receptor; maximum mP value (mPmax), MpLBD (MpLBD [6]; 36 nM MB4628, no CHAPS): 335 mP; Kd (MpLBD [6]; without CHAPS, 36 nM MB4628, read-out: Kd for MB4628 from FP titration curve, MpLBD): 0.0353 µM; FP titration midpoint, BtLBD, 2 mM CHAPS (BtLBD [7]; 36 nM MB4628, 2 mM CHAPS, FIG. 3B experiment): 1.5 nM functional BtLBD; FP titration midpoint, BtLBD, CHAPS-free (BtLBD [7]; 36 nM MB4628, CHAPS-free, FIG. 3B experiment): 4.5 nM; mPmax, BtLBD (BtLBD [7]; 36 nM MB4628, no CHAPS): 210-260 mP; FP titration curve midpoint, BtLBD (BtLBD [7]; 36 nM MB4628, no CHAPS (FIG. 3A)): 1 to 5 nM functional receptor; Kd (BtLBD [7]; Kd for MB4628, BtLBD without CHAPS, without CHAPS): 0.0347 µM; Kd (BtLBD [7]; Kd for MB4628 from FP titration curve, BtLBD, with 2 mM CHAPS): 0.0353 µM; FP titration curve midpoint, LcLBD (LcLBD): 2.5 nM functional receptor; mPmax, LcLBD (LcLBD): 220 mP; FP titration curve midpoint, HaLBD (HaLBD): 3.5 nM functional receptor; mPmax, HaLBD (HaLBD): 230 mP |
| CC(CO)CC[C@@H](O)[C@](C)(O)[C@H]1CC[C@@]2(O)C3=CC(=O)[C@@H]4C[C@@H](O)[C@@H](O)C[C@]4(C)[C@H]3CC[C@]12C (stereo partly drawn) [inokosterone] |  |  |  |  | 0.065 |  |  |
| 2β,3β,14α,20R,22R,25-hexahydroxy-5β-cholest-7-ene-6-one [20-hydroxyecdysone] | 0.1 µM | 0.24 | 1.49 | 0.994 |  |  |  |
| CC(CC[C@@H](O)C(C)(O)C1CC[C@@]2(O)C3=CC(=O)[C@@H]4C[C@@H](O)[C@@H](O)CC4(C)C3CCC12C)COS(=O)(=O)c1cccc2c(N(C)C)cccc12 (stereo partly drawn) [MB4622] |  |  |  |  |  | highly effective ligand |  |
| CCN(CC)c1ccc2cc(NC(=O)OCC(C)CCC(O)C(C)(O)C3CCC4(O)C5=CC(=O)C6CC(O)C(O)CC6(C)C5CCC34C)c(=O)oc2c1 (stereo not drawn) [MB4592] |  |  |  |  | 0.02 | unimpaired |  |
| COc1ccc2cc(NC(=O)OCC(C)CC[C@@H](O)C(C)(O)C3CC[C@@]4(O)C5=CC(=O)[C@@H]6C[C@@H](O)[C@@H](O)CC6(C)C5CCC34C)c(=O)oc2c1 (stereo partly drawn) [MB4603] |  |  |  |  | 0.04 | unimpaired |  |
